Laboratory results taken from ChEMBL document CHEMBL5678818, “Discovery of potent SOS1 inhibitors that block RAS activation via disruption of the RAS-SOS1 interaction” (Proc Natl Acad Sci U S A, 2019).

Legend:
[1] = biological target: TGF-beta receptor type-2 (Homo sapiens) (UniProt P37173); assay: Inhibition of TGFBR2 (unknown origin) assessed as residual activity at 100 nM by KINOMEscan analysis relative to control
[2] = biological target: T1, Serine/threonine-protein kinase 3 (Homo sapiens) (UniProt Q13188); assay: Inhibition of MST2 (unknown origin) assessed as residual activity at 100 nM by KINOMEscan analysis relative to control
T1 sequence (whole entry): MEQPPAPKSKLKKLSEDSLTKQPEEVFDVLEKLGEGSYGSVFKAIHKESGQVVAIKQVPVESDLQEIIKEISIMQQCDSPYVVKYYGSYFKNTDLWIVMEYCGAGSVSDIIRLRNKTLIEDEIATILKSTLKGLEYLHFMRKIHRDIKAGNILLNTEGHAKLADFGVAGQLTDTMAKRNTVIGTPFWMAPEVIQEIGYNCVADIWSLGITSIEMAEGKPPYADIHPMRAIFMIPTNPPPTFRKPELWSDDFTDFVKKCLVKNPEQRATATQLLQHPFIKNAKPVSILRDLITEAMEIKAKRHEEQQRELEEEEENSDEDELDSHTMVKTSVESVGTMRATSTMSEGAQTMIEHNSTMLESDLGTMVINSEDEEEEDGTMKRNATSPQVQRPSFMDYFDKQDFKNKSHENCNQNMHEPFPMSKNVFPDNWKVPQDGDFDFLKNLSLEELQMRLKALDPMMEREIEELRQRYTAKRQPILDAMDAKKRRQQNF

[3] = biological target: T2, Rhodopsin kinase GRK1 (Homo sapiens) (UniProt Q15835); assay: Inhibition of GRK1 (unknown origin) assessed as residual activity at 100 nM by KINOMEscan analysis relative to control
T2 sequence (whole entry): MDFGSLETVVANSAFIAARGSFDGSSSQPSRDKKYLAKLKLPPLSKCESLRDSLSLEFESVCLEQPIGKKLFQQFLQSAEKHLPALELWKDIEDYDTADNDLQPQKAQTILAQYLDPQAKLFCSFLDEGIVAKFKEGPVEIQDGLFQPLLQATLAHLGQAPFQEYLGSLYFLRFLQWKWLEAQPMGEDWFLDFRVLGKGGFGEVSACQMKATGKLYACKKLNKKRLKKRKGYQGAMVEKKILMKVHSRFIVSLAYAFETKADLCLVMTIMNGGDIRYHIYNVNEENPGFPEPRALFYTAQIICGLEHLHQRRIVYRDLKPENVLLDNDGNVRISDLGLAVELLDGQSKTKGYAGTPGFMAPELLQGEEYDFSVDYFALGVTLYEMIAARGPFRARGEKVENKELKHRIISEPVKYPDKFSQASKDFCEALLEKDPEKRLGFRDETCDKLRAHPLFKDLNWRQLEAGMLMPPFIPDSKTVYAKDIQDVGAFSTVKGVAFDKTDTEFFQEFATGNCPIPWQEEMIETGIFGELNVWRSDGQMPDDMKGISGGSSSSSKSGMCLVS

[4] = biological target: Ephrin type-A receptor 4 (Homo sapiens) (UniProt P54764); assay: Inhibition of EPHA4 (unknown origin) assessed as residual activity at 100 nM by KINOMEscan analysis relative to control
[5] = biological target: Tyrosine-protein kinase Fer (Homo sapiens) (UniProt P16591); assay: Inhibition of FER (unknown origin) assessed as residual activity at 100 nM by KINOMEscan analysis relative to control
[6] = biological target: T3, Aurora kinase C (Homo sapiens) (UniProt Q9UQB9); assay: Inhibition of AURKC (unknown origin) assessed as residual activity at 100 nM by KINOMEscan analysis relative to control
T3 sequence (whole entry): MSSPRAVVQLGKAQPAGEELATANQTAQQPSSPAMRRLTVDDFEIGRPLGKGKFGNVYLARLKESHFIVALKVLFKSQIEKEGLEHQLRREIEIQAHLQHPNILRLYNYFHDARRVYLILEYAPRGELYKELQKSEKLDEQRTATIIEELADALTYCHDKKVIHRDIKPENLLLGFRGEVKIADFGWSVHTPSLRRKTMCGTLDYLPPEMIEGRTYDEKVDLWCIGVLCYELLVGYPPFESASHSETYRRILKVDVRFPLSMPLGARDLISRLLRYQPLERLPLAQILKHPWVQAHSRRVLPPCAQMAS

[7] = biological target: Tyrosine-protein kinase Lyn (Homo sapiens) (UniProt P07948); assay: Inhibition of LYN (unknown origin) assessed as residual activity at 100 nM by KINOMEscan analysis relative to control
[8] = biological target: Activin receptor type-2B (Homo sapiens) (UniProt Q13705); assay: Inhibition of ACVR2B (unknown origin) assessed as residual activity at 100 nM by KINOMEscan analysis relative to control
[9] = biological target: T4, Serine/threonine-protein kinase D2 (Homo sapiens) (UniProt Q9BZL6); assay: Inhibition of PRKD2 (unknown origin) assessed as residual activity at 100 nM by KINOMEscan analysis relative to control
T4 sequence (whole entry): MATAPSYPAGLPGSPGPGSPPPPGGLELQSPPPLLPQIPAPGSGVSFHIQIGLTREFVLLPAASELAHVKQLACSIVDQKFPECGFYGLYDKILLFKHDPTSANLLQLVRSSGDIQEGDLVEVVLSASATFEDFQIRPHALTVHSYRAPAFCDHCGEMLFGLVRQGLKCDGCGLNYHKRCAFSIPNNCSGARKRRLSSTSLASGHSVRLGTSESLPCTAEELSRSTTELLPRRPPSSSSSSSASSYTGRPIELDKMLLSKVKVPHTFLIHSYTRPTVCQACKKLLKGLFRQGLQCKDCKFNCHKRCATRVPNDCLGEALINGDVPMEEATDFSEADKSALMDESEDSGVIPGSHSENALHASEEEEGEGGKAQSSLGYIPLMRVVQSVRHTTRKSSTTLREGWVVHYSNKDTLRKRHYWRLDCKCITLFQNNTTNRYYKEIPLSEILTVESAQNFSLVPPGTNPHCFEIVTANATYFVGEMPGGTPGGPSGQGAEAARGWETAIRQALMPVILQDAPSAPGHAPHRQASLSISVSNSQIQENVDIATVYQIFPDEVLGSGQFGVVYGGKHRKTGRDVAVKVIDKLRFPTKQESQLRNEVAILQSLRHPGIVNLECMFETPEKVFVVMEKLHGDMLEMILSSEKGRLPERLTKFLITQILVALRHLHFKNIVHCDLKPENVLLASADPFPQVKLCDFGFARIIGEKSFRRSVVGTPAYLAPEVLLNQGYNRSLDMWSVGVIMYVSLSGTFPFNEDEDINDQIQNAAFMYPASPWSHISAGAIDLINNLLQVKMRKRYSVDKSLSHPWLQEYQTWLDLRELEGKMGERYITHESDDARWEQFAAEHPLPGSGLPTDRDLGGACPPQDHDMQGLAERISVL

[10] = biological target: Calcium/calmodulin-dependent protein kinase type 1G (Homo sapiens) (UniProt Q96NX5); assay: Inhibition of CAMK1G (unknown origin) assessed as residual activity at 100 nM by KINOMEscan analysis relative to control
Chain of Calcium/calmodulin-dependent protein kinase type 1G (Homo sapiens) (Q96NX5 whole entry): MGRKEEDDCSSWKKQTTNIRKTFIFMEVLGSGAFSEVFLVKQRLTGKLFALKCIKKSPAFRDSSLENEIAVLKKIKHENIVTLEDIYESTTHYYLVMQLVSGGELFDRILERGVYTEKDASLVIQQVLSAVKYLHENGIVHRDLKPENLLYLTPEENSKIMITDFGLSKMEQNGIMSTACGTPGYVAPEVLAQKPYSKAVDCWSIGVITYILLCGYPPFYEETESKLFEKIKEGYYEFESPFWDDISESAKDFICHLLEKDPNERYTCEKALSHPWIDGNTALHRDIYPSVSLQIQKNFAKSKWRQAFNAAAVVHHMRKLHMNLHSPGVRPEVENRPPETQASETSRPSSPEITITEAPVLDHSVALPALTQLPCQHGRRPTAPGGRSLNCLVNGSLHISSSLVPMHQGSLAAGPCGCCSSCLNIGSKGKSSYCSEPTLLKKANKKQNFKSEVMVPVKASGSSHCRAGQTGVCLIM

Chain of TGF-beta receptor type-2 (Homo sapiens) (P37173 whole entry): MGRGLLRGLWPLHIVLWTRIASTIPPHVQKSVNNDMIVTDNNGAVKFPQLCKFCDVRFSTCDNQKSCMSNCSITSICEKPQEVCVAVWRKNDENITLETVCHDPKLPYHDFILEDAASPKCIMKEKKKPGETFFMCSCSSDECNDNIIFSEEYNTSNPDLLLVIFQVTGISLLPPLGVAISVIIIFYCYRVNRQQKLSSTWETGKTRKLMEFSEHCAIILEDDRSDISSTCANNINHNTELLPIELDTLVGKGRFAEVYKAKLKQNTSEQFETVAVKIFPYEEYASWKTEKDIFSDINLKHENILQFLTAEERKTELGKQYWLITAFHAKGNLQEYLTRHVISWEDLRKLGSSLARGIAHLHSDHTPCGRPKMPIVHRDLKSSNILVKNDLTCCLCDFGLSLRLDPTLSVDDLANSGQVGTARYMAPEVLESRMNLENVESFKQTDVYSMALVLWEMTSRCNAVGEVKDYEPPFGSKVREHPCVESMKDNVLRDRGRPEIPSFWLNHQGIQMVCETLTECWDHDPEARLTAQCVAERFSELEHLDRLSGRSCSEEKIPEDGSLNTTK
Chain of Activin receptor type-2B (Homo sapiens) (Q13705 whole entry): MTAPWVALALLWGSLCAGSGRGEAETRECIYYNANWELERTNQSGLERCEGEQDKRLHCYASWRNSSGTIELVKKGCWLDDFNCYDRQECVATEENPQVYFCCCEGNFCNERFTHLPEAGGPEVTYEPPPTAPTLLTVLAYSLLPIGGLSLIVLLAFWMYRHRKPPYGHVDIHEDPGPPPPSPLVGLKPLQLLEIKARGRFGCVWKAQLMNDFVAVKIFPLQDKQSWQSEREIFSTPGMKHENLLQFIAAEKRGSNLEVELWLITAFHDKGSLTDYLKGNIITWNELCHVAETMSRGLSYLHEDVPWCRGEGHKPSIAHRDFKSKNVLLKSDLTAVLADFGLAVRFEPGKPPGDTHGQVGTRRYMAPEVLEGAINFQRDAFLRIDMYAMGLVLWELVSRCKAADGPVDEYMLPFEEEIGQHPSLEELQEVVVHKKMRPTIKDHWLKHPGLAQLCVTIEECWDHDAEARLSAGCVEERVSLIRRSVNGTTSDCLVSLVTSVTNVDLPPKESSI
Chain of Tyrosine-protein kinase Fer (Homo sapiens) (P16591 whole entry, looked up): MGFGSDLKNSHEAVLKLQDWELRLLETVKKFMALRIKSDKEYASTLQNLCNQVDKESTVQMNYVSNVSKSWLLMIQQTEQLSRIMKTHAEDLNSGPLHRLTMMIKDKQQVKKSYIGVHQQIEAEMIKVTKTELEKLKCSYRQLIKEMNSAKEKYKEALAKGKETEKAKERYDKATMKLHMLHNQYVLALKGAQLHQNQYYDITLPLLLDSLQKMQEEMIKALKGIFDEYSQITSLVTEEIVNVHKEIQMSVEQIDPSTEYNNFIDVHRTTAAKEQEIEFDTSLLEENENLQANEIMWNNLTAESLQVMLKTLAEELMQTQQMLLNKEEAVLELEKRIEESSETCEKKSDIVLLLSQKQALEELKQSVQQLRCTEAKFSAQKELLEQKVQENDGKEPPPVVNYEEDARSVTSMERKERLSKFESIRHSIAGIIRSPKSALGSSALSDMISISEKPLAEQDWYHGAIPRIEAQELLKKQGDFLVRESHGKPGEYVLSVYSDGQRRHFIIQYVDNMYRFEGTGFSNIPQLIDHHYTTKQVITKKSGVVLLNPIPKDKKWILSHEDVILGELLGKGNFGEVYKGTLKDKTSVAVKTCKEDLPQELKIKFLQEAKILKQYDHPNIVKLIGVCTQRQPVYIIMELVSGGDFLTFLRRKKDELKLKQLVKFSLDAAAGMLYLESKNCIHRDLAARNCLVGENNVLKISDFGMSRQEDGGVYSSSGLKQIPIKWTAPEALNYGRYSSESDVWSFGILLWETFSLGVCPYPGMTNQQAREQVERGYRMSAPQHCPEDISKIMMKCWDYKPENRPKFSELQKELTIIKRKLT
Chain of Ephrin type-A receptor 4 (Homo sapiens) (P54764 whole entry): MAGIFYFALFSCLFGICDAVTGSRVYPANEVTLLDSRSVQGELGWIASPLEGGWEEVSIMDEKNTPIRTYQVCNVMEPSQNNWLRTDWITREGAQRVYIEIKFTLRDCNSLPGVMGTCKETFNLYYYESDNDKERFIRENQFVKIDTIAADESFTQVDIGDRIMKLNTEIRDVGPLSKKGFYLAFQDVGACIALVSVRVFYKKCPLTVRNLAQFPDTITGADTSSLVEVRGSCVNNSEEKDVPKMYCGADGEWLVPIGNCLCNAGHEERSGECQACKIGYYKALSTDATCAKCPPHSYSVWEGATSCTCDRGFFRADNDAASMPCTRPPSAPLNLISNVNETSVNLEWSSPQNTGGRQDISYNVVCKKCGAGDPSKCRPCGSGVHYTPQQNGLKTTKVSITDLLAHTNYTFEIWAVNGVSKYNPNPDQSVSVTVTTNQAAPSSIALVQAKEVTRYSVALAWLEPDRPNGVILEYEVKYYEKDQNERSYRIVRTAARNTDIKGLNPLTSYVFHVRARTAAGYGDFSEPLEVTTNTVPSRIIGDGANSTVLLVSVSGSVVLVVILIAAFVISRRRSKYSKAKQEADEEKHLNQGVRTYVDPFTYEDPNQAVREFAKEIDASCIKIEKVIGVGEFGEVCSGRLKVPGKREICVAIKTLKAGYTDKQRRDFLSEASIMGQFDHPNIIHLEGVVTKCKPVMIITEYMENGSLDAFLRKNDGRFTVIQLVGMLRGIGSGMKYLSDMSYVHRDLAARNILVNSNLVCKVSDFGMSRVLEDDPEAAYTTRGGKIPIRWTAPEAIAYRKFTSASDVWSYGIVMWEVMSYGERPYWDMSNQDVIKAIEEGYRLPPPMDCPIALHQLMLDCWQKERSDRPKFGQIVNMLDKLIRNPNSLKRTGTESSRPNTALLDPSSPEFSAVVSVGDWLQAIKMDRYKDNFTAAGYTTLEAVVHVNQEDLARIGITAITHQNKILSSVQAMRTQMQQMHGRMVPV
Chain of Tyrosine-protein kinase Lyn (Homo sapiens) (P07948 2-512 limits assumed): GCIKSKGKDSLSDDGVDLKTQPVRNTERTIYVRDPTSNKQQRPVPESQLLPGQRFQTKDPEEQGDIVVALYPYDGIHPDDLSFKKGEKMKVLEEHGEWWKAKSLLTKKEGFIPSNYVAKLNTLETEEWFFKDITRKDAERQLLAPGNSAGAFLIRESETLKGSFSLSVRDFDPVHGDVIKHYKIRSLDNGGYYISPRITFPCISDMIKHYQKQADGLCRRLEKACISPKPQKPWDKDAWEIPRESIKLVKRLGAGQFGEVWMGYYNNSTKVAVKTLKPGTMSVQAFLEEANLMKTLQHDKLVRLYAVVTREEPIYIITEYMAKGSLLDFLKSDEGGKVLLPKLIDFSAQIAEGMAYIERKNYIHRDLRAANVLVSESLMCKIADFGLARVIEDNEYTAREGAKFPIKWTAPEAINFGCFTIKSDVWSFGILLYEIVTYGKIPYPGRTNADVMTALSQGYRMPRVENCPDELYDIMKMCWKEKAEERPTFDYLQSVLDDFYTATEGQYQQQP

## COc1cc2ncnc(N[C@H](C)c3cccc4ccccc34)c2cc1OC
[1]
  Activity: 93%
[2]
  Activity: 92%
[3]
  Activity: 96%
[4]
  Activity: 86%
[5]
  Activity: 100%
[6]
  Activity: 78%
[7]
  Activity: 84%
[8]
  Activity: 91%
[9]
  Activity: 80%
[10]
  Activity: 72%
